Measurements as given in US9676997B2, “Compositions and methods for stabilizing luminogenic substrates” (Promega Corporation, priority 2014, dated 2017).

Tests used:
Assay type in all cases: physicochemical
[1] = Stability of 1.25 mM furimazine in 50% ethanol and 50% propylene glycol with or without 225 mM ATT, in the presence of light, HPLC and Arrhenius plots; conditions: for relative peak area percentage at 262 nm: in the presence of light
Description: The stability of furimazine in the presence and absence of ATT was measured over time at different temperatures. This study was conducted in the presence of light. Specifically, 1.25 mM furimazine was present in a solution of 50% ethanol and 50% propylene glycol (i.e., the solution without ATT) or a solution of 50% ethanol and 50% propylene glycol with 225 mM ATT (i.e., the solution with ATT). […]
Following incubation, high performance liquid chromatography (HPLC) was utilized to identify the components of the respective solutions at each time point. Specifically, an Agilent 1100 HPLC instrument was used and equipped with a quaternary pump, thermostatted autosampler and column compartment, and a G1311B diode-array detector. The column used was a Synergi-MAX-RP (Phenomenex, Torrance, Calif.) 100 AÅ 50×4.6 2.5 μm. The run on the HPLC was a gradient run with 0.1% TFA in water and acetonitrile. Absorbance was measured at 262 nanometers (nm). Standards of furimazine and its known degradants were run to confirm both the retention time and absorbance trace. 5 μl of each solution was injected and the retention time of furimazine at room temperature was 5.1 minutes.
The results of the HPLC analysis are shown below in Tables 10 and 11 and FIGS. 4A and 4B, in which the values are reported as relative peak area percentage at 262 nm (i.e., the lamba max of the substrate). […] In each of FIGS. 4A and 4B, diamond is 1.25 mM furimazine incubated over time with or without 225 mM ATT, respectively, at −20° C., triangle is 1.25 mM furimazine incubated over time with or without 225 mM ATT, respectively, at 20° C., star is 1.25 mM furimazine incubated over time with or without 225 mM ATT, respectively, at 40° C., and cross is 1.25 mM furimazine incubated over time with or without 225 mM ATT, respectively, at 60° C.
Additionally, Arrhenius plots were generated for furimazine in the presence and absence of ATT to calculate the half-life of furimazine at various temperatures. The Arrhenius equation is as follows: […]
In FIG. 5, the slope was −10831.4, the intercept was 31.3561, and R^2 was 0.9813.
In FIG. 6, the slope was −10106.2, the intercept was 30.1809, and R^2 was 0.9984.

[2] = Photostability of 1.25 mM furimazine in 50% propylene glycol:50% ethanol with or without 225 mM ATT, HPLC; conditions: for 10% loss / 50% loss: in the light
Description: Specifically, a 2× stock solution of ATT in 50% propylene glycol:50% ethanol (v/v) was prepared, in which the final concentration of ATT was 64.4 mg/mL. A 2× stock solution of furimazine in 50% propylene glycol:50% ethanol (v/v) was also prepared, in which the final concentration of furimazine was 0.95 mg/mL. In one vial, the 2×ATT stock solution was diluted 1:1 in the 2×furimazine stock solution to create a solution containing 225 mM ATT and 1.25 mM furimazine. In a second vial, the 2×furimazine stock solution was diluted 1:1 in 50% propylene glycol:50% ethanol (v/v) to create a control solution without the additive ATT (i.e., “no additive furimazine” control) and containing 1.25 mM furimazine.
The content of each vial was dispensed into separate, clear HPLC vials with insert and these HPLC vials were placed at room temperature (i.e., about 20° C.) in the light (i.e., in the presence of overhead fluorescent light) and at 40° C. in the light. There was one HPLC vial per time point for each temperature.
Stability was measured by HPLC with 5 μL injection and detection at 262 nm. In each chromatogram, the area of the furimazine peak was determined. Stability curves were generated by plotting the area (10^6) vs. time (days) and are shown in FIGS. 13A and 13B for room temperature and 40° C., respectively.

[3] = Stability of furimazine at 37° C. in different organic solvents with or without ATT, luminescence with NANOLUC luciferase; conditions: 50% PG:50% ethanol, 60% PG:40% ethanol, 15% glycerol:85% ethanol, 250 or 300 mM ATT vs no ATT
Description: To further examine the stabilization of furimazine at 37° C., luminescence was measured after furimazine was incubated in the presence of different organic solvents, namely 50% (v/v) propylene glycol (PG):50% (v/v) ethanol, 60% (v/v) propylene glycol (PG):40% (v/v) ethanol, and 15% (v/v) glycerol:85% (v/v) ethanol.
1.25 mM stocks of furimazine were prepared in the following solutions: a) 50% propylene glycol:50% ethanol, 1.25 mM furimazine, 250 mM ATT; b) 60% propylene glycol:40% ethanol, 1.25 mM furimazine, 300 mM ATT; c) 15% glycerol:85% ethanol, 1.25 mM furimazine, 250 mM ATT; and inventory furimazine (Promega Corporation). Furimazine was first dissolved and then ATT was added. To make 4 mL of each sample, 2 mg furimazine and 143 mg of ATT (250 mM ATT) was added. For 300 mM ATT, 171 mg of ATT was added.
A portion of these samples was aliquoted into amber Starstead tubes with O-rings and then placed at 37° C. […] The remaining sample was placed at −20° C. in a 15 mL tube and monitored for precipitate formation.
Prior to assaying the samples, they were heated to room temperature (RT) and vortexed to ensure that any material that fell out of solution was re-suspended. […] The resulting dilutions were incubated for 3 minutes at RT, and luminescence was detected on a luminometer (GLOMAX Multi plus luminometer, Promega Corporation). […]

Cc1n[nH]c(=S)[nH]c1=O [ATT, 6-methyl-3-thioxo-3,4-dihydro-1,2,4-triazin-5(2H)-one]
stabilization of furimazine against decomposition ([1]; 225 mM ATT, over time at different temperatures): stabilized furimazine against decomposition over time at different temperatures | stabilization of furimazine against decomposition in the presence of light ([2]; 225 mM ATT, room temperature and 40° C.): stabilized furimazine against decomposition in the presence of light at different temperatures

O=c1c(Cc2ccco2)nc2c(Cc3ccccc3)[nH]c(-c3ccccc3)cn1-2 [Furimazine, furimazine]
relative peak area percentage at 262 nm ([1]; 40° C., 0 days): 89.7% | relative peak area percentage at 262 nm ([1]; 40° C., 1 day): 93.8% | relative peak area percentage at 262 nm ([1]; 40° C., 5 days): 65% | relative peak area percentage at 262 nm ([1]; 40° C., 8 days): 50.1% | relative peak area percentage at 262 nm ([1]; 40° C., 14 days): 27% | relative peak area percentage at 262 nm ([1]; 40° C., 30 days): 3.5% | relative peak area percentage at 262 nm ([1]; 40° C., 90 days): 0% | relative peak area percentage at 262 nm ([1]; 60° C., 0 days): 89.7% | relative peak area percentage at 262 nm ([1]; 60° C., 1 day): 70.1% | relative peak area percentage at 262 nm ([1]; 60° C., 5 days): 1.3%^ | relative peak area percentage at 262 nm ([1]; 60° C., 8 days): 0% | relative peak area percentage at 262 nm ([1]; 60° C., 14 days): 0% | relative peak area percentage at 262 nm ([1]; 60° C., 30 days): 0% | relative peak area percentage at 262 nm ([1]; 60° C., 90 days): 0% | relative peak area percentage at 262 nm ([1]; RT (20° C.), 0 days): 89.7% | relative peak area percentage at 262 nm ([1]; RT (20° C.), 1 day): 97.2% | relative peak area percentage at 262 nm ([1]; RT (20° C.), 5 days): 93.8% | relative peak area percentage at 262 nm ([1]; RT (20° C.), 8 days): 91.7% | relative peak area percentage at 262 nm ([1]; RT (20° C.), 14 days): 86.7% | relative peak area percentage at 262 nm ([1]; RT (20° C.), 30 days): 74.8% | relative peak area percentage at 262 nm ([1]; RT (20° C.), 90 days): 27.1% | Arrhenius plot intercept ([1]; decomposition of furimazine): 30.1809 | Arrhenius plot slope ([1]; decomposition of furimazine): −10106.2 | relative peak area percentage at 262 nm ([1]; −20° C., 0 days): 89.7% | relative peak area percentage at 262 nm ([1]; −20° C., 1 day): 98.3% | relative peak area percentage at 262 nm ([1]; −20° C., 5 days): 96.9% | relative peak area percentage at 262 nm ([1]; −20° C., 8 days): 98.2% | relative peak area percentage at 262 nm ([1]; −20° C., 14 days): 97.7% | relative peak area percentage at 262 nm ([1]; −20° C., 30 days): 98.3% | relative peak area percentage at 262 nm ([1]; −20° C., 90 days): 95.3% | 10% loss ([2]; 40° C.): 0.4 days | 50% loss ([2]; 40° C.): 3.6 days | 10% loss ([2]; room temperature): 0.5 days | 50% loss ([2]; room temperature): 2.1 days | stability of furimazine (normalized RLUs over time) [3]: more stable in the presence of ATT than in the absence of ATT for each organic solvent
